Source: patent US20260356841A1, “HETEROCYCLIC PYRIDINONE COMPOUNDS AS TRIGGERING RECEPTOR EXPRESSED ON MYELOID CELLS 2 AGONISTS AND METHODS OF USE” (Vigil Neuroscience, Inc., priority 2023, published 2026)

Biological target: T1, human TREM2 (Homo sapiens, UniProt Q9NZC2)
T1 construct: expressed in transfected cells; host or cells: HEK293T (HEK293T-hTREM2 cells)
Experiment: TREM2 agonist potency by cellular phosphorylation of Spleen Tyrosine Kinase (Syk), AlphaLisa, HEK293T-hTREM2 cells
Assay type: cell-based
Settings: not given
Description: Measurement of TREM2 agonist potency was done using a HEK cell line expressing human TREM2 and DAP12 (HEK293T-hTREM2 cells). Binding of small molecules to, and activation of, TREM2 increases the phosphorylation of Syk. The resultant levels of Syk phosphorylation are measured using a commercial AlphaLisa reagent kit. To perform the assay, HEK-hTREM2 cells were plated at 14,000 cells per well in a 384 well plate, in 25 μL of complete growth media and incubated at 37° C., 5% CO2 for 20-24 hours.
Prior to the assay, test compounds were diluted in the 384 well plates in assay buffer and allowed to equilibrate for 30 minutes. Growth media was removed from cell plates by inversion on blotting paper, and 25 μL of test articles in assay buffer was added to cells. Cells were incubated for 45 minutes at room temperature. After 45 minutes, assay buffer was removed and 10 μL of lysis buffer was added. Plates were shaken for 20 minutes at 350 RPM at room temperature. After complete lysis, AlphaLisa reagents were added to the lysate, and fluorescence intensity was measured using a Perkin Elmer Envision plate reader. Intensities were used to generate a standard curve, and % activation was calculated. Curve fitting was performed using Prism v9 software, log (agonist) vs response-variable slope (four parameters), and EC50s were calculated from the curve fit.
The results presented in Table B have been generated with the in vitro assay described above. This assay may be used to test any of the compounds described herein to assess and characterize a compound's ability to act as an agonist of TREM2.

T1 sequence (Q9NZC2 19-230): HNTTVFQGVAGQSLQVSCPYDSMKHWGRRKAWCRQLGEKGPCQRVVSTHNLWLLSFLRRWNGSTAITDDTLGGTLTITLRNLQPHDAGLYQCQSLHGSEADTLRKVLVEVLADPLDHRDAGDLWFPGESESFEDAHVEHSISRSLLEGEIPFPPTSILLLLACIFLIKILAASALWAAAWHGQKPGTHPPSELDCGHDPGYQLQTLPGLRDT
T1 sequence (O43914 22-113 partner): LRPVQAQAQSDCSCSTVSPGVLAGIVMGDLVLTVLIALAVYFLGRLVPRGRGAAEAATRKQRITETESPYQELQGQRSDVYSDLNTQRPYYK

Row | SMILES | EC50
1 | Cc1nc2nc(N3C[C@@H](C)O[C@@H](c4ccc(=O)n(C)c4)C3)nc(-c3ccc(C(F)(F)F)cc3F)c2nc1C [Example 7, 5-[(2S,6R)-4-[4-[2-fluoro-4-(trifluoromethyl)phenyl]-6,7-dimethyl-pteridin-2-yl]-6-methyl-morpholin-2-yl]-1-methyl-pyridin-2-one] | < 100 nM

Same assay, conditions: hTREM2 EC50 Data (HEK293 Cells); Syk phosphorylation, AlphaLisa; read-out: hTREM2 EC50

Row | SMILES | EC50
2 | Cc1nc2c(C34CC(C(F)(F)F)(C3)C4)nc([C@H]3CCO[C@@H](c4ccc(=O)[nH]c4)C3)nc2c(=O)n1C (racemic) [Example 216, 2,3-dimethyl-6-[rac-(2R,4S)-2-(6-oxo-1H-pyridin-3-yl)tetrahydropyran-4-yl]-8-[3-(trifluoromethyl)-1-bicyclo[1.1.1]pentanyl]pyrimido[5,4-d]pyrimidin-4-one] | 100 to 500 nM
3 | Cc1nc2nc([C@H]3CCO[C@@H](c4ccc(=O)n(C)c4)C3)cc(C34CC(C(F)(F)F)(C3)C4)c2nc1C [Example 167, 1-methyl-5-[(2R,4S)-4-[2,3-dimethyl-8-[3-(trifluoromethyl)-1-bicyclo[1.1.1]pentanyl]pyrido[2,3-b]pyrazin-6-yl]tetrahydropyran-2-yl]pyridin-2-one] | < 100 nM
4 | C[C@@H]1CN(c2nc(-c3ccc(F)cc3F)c3sc(N(C)C)nc3n2)C[C@H](c2ccc(=O)[nH]c2)O1 [Example 173, 5-[(2S,6R)-4-[7-(2,4-difluorophenyl)-2-(dimethylamino)thiazolo[4,5-d]pyrimidin-5-yl]-6-methyl-morpholin-2-yl]-1H-pyridin-2-one] | < 100 nM
5 | Cc1nc2nc([C@H]3CCO[C@@H](c4ccc(=O)n(C)c4)C3)nc(-c3ccc(C(F)(F)F)c(F)c3F)c2nc1C [Example 18, 5-[(2R,4S)-4-[4-[2,3-difluoro-4-(trifluoromethyl)-phenyl]-6,7-dimethyl-pteridin-2-yl]tetrahydropyran-2-yl]-1-methyl-pyridin-2-one] | 100 to 500 nM
6 | Cc1nc2nc([C@@H]3CCO[C@H](c4ccc(=O)n(C)c4)C3)nc(-c3ccc(C(F)(F)F)cc3F)c2nc1C(F)F [Example 127, 5-[(2S,4R)-4-[6-(difluoromethyl)-4-[2-fluoro-4-(trifluoromethyl)phenyl]-7-methyl-pteridin-2-yl]tetrahydropyran-2-yl]-1-methyl-pyridin-2-one] | < 100 nM
7 | Cc1nc2nc(N3C[C@@H](C)O[C@@H](c4ccc(=O)[nH]c4)C3)nc(C34CC(C(F)(F)F)(C3)C4)c2nc1C1COC1 [Example 195, 5-[(2S,6R)-6-methyl-4-[7-methyl-6-(oxetan-3-yl)-4-[3-(trifluoromethyl)-1-bicyclo[1.1.1]pentanyl]pteridin-2-yl]morpholin-2-yl]-1H-pyridin-2-one] | < 100 nM
8 | Cc1nc2nc([C@H]3CCO[C@@H](c4ccc(=O)n(C5CC5)c4)C3)nc(C34CC(C(F)(F)F)(C3)C4)c2nc1C [Example 74, 1-cyclopropyl-5-[(2R,4S)-4-[6,7-dimethyl-4-[3-(trifluoromethyl)-1-bicyclo[1.1.1]pentanyl]pteridin-2-yl]tetrahydropyran-2-yl]pyridin-2-one] | < 100 nM
9 | Cc1nc2c(C34CC(C(F)(F)F)(C3)C4)nc(N3C[C@@H](C)O[C@@H](c4ccc(=O)n(C5CC5)c4)C3)nc2c(=O)n1C [Example 219] | < 100 nM
10 | Cc1nc2nc([C@@H]3CCO[C@@H](c4ccc(=O)n(C)c4)C3)nc(-c3cc(F)c(C(F)(F)F)cc3F)c2nc1C [Example 348] | > 500 nM
11 | Cc1nc2nc([C@@H]3CCO[C@H](c4ccc(=O)n(CC(F)F)c4)C3)nc(C34CC(C(F)(F)F)(C3)C4)c2nc1C [Example 72, 1-(2,2-difluoroethyl)-5-[(2S,4R)-4-[6,7-dimethyl-4-[3-(trifluoro-methyl)-1-bicyclo-[1.1.1]pentanyl]-pteridin-2-yl]tetrahydropyran-2-yl]pyridin-2-one] | < 100 nM
12 | Cc1nc2nc([C@H]3CCO[C@@H](c4ccc(=O)n(C)c4)C3)nc(-c3ccc(F)cc3F)c2nc1C [Example 1, 1-methyl-5-[(2R,4S)-4-[4-(2,4-difluorophenyl)-6,7-dimethyl-pteridin-2-yl]tetrahydropyran-2-yl]pyridin-2-one] | < 100 nM
13 | Cc1nc2nc([C@H]3CCO[C@@H](c4ccc(=O)n(N5CCCC5)c4)C3)nc(C34CC(C(F)(F)F)(C3)C4)c2nc1C [Example 209, 5-[(2R,4S)-4-[6,7-dimethyl-4-[3-(trifluoromethyl)-1-bicyclo[1.1.1]pentanyl]pteridin-2-yl]tetrahydropyran-2-yl]-1-pyrrolidin-1-yl-pyridin-2-one] | < 100 nM
14 | C=CCN(CC=C)n1cc([C@H]2C[C@@H](c3nc(C45CC(C(F)(F)F)(C4)C5)c4nc(C)c(C)nc4n3)CCO2)ccc1=O [Example 206, 1-(diallylamino)-5-[(2R,4S)-4-[6,7-dimethyl-4-[3-(trifluoromethyl)-1-bicyclo[1.1.1]pentanyl]pteridin-2-yl]tetrahydropyran-2-yl]pyridin-2-one] | < 100 nM
15 | Cc1cnc2c(C34CC(C(F)(F)F)(C3)C4)nc([C@H]3CCO[C@@H](c4ccc(=O)n(C)c4)C3)nc2n1 [Example 123, 1-methyl-5-((2R,4S)-4-(7-methyl-4-(3-(trifluoromethyl)bicyclo-[1.1.1]pentan-1-yl)pteridin-2-yl)tetrahydro-2H-pyran-2-yl)pyridin-2(1H)-one] | < 100 nM
16 | CN(C)c1nc2c(C34CC(C(F)(F)F)(C3)C4)nc([C@H]3CCO[C@@H](c4ccc(=O)n(C)c4)C3)nc2n1C [Example 188] | > 500 nM
17 | CN(C)c1nc2nc([C@H]3CCO[C@H](c4ccc(=O)n(C)c4)C3)nc(-c3ccc(F)cc3F)c2s1 (stereo in doubt) [Example 11, 5-[(2S,4S)-4-[7-(2,4-difluorophenyl)-2-(dimethylamino)thiazolo[4,5-d]pyrimidin-5-yl]tetrahydropyran-2-yl]-1-methyl-pyridin-2-one] | 100 to 500 nM
18 | Cc1nc2nc([C@@H]3CCO[C@H](c4ccc(=O)n(C5CC5)c4)C3)nc(C34CC(C(F)(F)F)(C3)C4)c2nc1C [Example 75, 1-cyclopropyl-5-[(2S,4R)-4-[6,7-dimethyl-4-[3-(trifluoromethyl)-1-bicyclo[1.1.1]-pentanyl]-pteridin-2-yl]tetrahydropyran-2-yl]pyridin-2-one] | < 100 nM
19 | Cc1nc2nc([C@H]3CCO[C@@H](c4ccc(=O)[nH]c4)C3)nc(C34CC(C(F)(F)F)(C3)C4)c2nc1C [Example 34, 5-[(2R,4S)-4-[6,7-dimethyl-4-[3-(trifluoromethyl)-1-bicyclo[1.1.1]pentanyl]pteridin-2-yl]tetrahydropyran-2-yl]-1H-pyridin-2-one] | < 100 nM
20 | Cc1nc2nc(C3CCO[C@@H](c4ccc(=O)n(-c5cscn5)c4)C3)nc(C34CC(C(F)(F)F)(C3)C4)c2nc1C (mixture of isomers) [Example 109, 5-((2R)-4-(6,7-dimethyl-4-(3-(trifluoromethyl)bicyclo-[1.1.1]pentan-1-yl)pteridin-2-yl)tetrahydro-2H-pyran-2-yl)-1-(thiazol-4-yl)pyridin-2(1H)-one] | < 100 nM
21 | CCCNn1cc([C@H]2C[C@@H](c3nc(C45CC(C(F)(F)F)(C4)C5)c4nc(C)c(C)nc4n3)CCO2)ccc1=O [Example 212, 5-[(2R,4S)-4-[6,7-dimethyl-4-[3-(trifluoromethyl)-1-bicyclo[1.1.1]pentanyl]pteridin-2-yl]tetrahydropyran-2-yl]-1-(propylamino)pyridin-2-one] | < 100 nM
